Source: paper PMC4393935, “A Pharmacokinetic Study of Antimalarial 3,5-Diaryl-2-aminopyridine Derivatives” (Malaria Research and Treatment, 2015)
Where two headings read alike, the source gives them in different places.

Key:
[1] = male Sprague Dawley rats, cited from earlier work
[2] = set-up: method as in PMID 23189922; settings: result in words; cited from earlier work
[3] = system: human Ether-à-go-go-Related Gene (hERG); set-up: method as in PMID 23189922; settings: result in words; cited from earlier work
P. berghei = system: P. berghei; set-up: method as in PMID 23189922; settings: result in words; cited from earlier work
[4] = Pharmacokinetic study in C57BL/6 mice after oral and intravenous dosing, blood levels by LC-MS/MS; format: in vivo; settings: for T 1/2 (apparent terminal half-life) / Cmax / half-life / AUC(0-inf) / clearance / Vd: mean ± SD of five mice; for Cmax: read-out: C Max (maximum blood concentration); for half-life: read-out: T 1/2 (apparent terminal half-life); for bioavailability: read-out: BA (oral bioavailability); for AUC(0-inf) / clearance / Vd: mouse; for AUC(0-inf): read-out: AUC0–∞ (total exposure) (converted); for clearance: read-out: CL (blood clearance); for Vd: read-out: Vss (volume of distribution)
Description: Male and female C57BL/6 mice (20–30 g) were obtained from the University of Cape Town Medical School Animal Unit. The mice were housed in ventilated cages at room temperature (approximately 22°C) with a constant supply of food and water and were monitored twice daily. The study was authorized by the University of Cape Town's Faculty of Health Science Animal Research Ethics Committee before its commencement (Reference number 012/020). All the work was performed according to the guidelines established by Austin and colleagues.
The compounds (Figure 1) were dissolved in DMSO and diluted further with phosphate buffered saline (PBS) to give a final DMSO concentration of 1%.
Comprehensive PK studies were performed on groups of five animals to determine the pharmacokinetic properties of the test compounds. This involved the oral dosing (200 μL) of 10-week-old C57BL/6 male mice at 20 mg/kg and intravenous dosing (100 μL) under anesthesia at 4 mg/kg via the dorsal penile vein. For the oral dosage a gavage needle was used for the administration of test compounds directly into the lower esophagus or stomach. Blood samples (approximately 30 μL) were collected serially by needle prick on the tail vein near to the tip of the tail at 0, 0.17, 0.5, 1, 2, 3, 5, 7, and 9 hours after dosing. Lithium-heparin-coated tubes were used to collect the blood samples. The collected blood samples were placed on ice immediately after sampling and were frozen at −80°C until analyzed.
The blood samples were brought to room temperature and then mixed by vortexing to ensure homogeneity. Twenty microliters of blood was mixed with 50 μL Milli-Q water and 150 μL acetonitrile. The sample was vortexed for 15 seconds, sonicated for 10 minutes, and centrifuged at 13000 ×g for 5 minutes. The supernatant was transferred to a flat-bottom glass insert and placed in a glass vial for analysis.
The liquid chromatography (LC) system employed was an ultrafast liquid chromatography (UFLC) system (Shimadzu) and the separation of the compounds was performed on a Phenomenex, Luna 5 μm PFP(2), 100 Å, and 50 mm × 2 mm analytical column. For method development, the compounds were prepared at 1 mg/mL stock in methanol and were further diluted with 50% acetonitrile: 0.1% formic acid to make a final concentration of 1 μg/mL. Analyst software version 1.5.2 (AB Sciex) was employed for data acquisition, peak-area integration, and quantitation of compounds in blood samples.
The mobile phase A consisted of 0.1% formic acid in water (v/v) and mobile phase B consisted of acetonitrile. Samples were maintained at 4°C until injection. The flow rate was set at 500 μL/min and the temperature of the column was maintained at 40°C. For the separation of the compounds the mobile phase was increased from 5% to 95% B over 2 minutes and returned to 5% B within 0.1 minutes and then equilibrated for 3 minutes. Calibration curves were derived in each analytical run in duplicate and were employed to extrapolate the concentration of the compounds in the blood samples.
The MS system consisted of an AB Sciex 3200 Q-Trap mass spectrometer which was operated at unit resolution in the multiple reaction monitoring (MRM) mode. The calibration range for all the compounds was between 7.8 and 1000 ng/mL and the accuracy (%Nom) for the calibration curves was between 90.31 and 104.0%.
Noncompartmental analysis was performed on each individual set of data using PK Solutions 2.0 Pharmacokinetic Analysis Software (Summit Research Services, Montrose, USA), which uses an automated Excel-based program. […]

[5] = male, C57BL/6, mouse, whole blood, iv, 4 mg/kg, IV, 4 mg/kg, blood
[6] = male, C57BL/6, mouse, whole blood, oral, oral 20 mg/kg vs IV 4 mg/kg
[7] = male, C57BL/6, mouse, whole blood, po, 20 mg/kg, oral, 20 mg/kg, blood
[8] = male, C57BL/6, mouse, whole blood, po, 20 mg/kg, oral, 20 mg/kg, blood, read-out: T Max
[9] = male, whole blood, IV, 4 mg/kg, blood
[10] = male, whole blood, oral, 20 mg/kg, blood
[11] = oral, 20 mg/kg, blood, 20 mg/kg

| T 1/2 (apparent terminal half-life) ([4]; IV, 4 mg/kg, blood) | Cmax [4, 5] | half-life [4, 5] | bioavailability [4, 6] | Cmax [4, 7] | half-life [4, 7] | Tmax [4, 8] | AUC(0-inf) [4, 9] | clearance ([4]; male, whole blood, IV, 4 mg/kg) | Vd ([4]; male, whole blood, IV, 4 mg/kg) | AUC(0-inf) [4, 10] | T 1/2 (apparent terminal half-life) ([4]; oral, 20 mg/kg, blood) | Cmax [4, 11] | Compound | metabolic stability [2] | hERG activity compared to the parent compound 3 [3] | activity in a P. berghei infected mouse model (P. berghei) | further results |
| --- | --- | --- | --- | --- | --- | --- | --- | --- | --- | --- | --- | --- | --- | --- | --- | --- | --- |
|  |  |  |  |  |  |  |  |  |  |  |  |  | COc1ccc(-c2cc(-c3ccc(S(C)(=O)=O)cc3)cnc2N)cn1 [Compound 3] |  |  |  | apparent t 1/2 ([1]; dosed intravenously): 8 h; apparent t 1/2 ([1]; dosed orally): 6.5 h; AUC ([1]; intravenous): 789 µM·min; AUC ([1]; oral): 6880 µM·min; clearance rate [1]: 18.3 mL/min/kg; oral bioavailability [1]: > 100% |
| 0.68 ± 0.6 h | 960 ± 60 nM | 0.68 to 0.87 h | 59.7% | 3300 nM | 2.5 to 3 h | ≤ 1 h | 1.75 µM·h | 92.6 ± 19 mL/min/kg | 27 ± 1.3 L/kg | 5.23 µM·h | 2.96 ± 0.2 h | 3340 nM | CNS(=O)(=O)c1ccc(-c2cnc(N)c(-c3ccc(C(F)(F)F)nc3)c2)cc1 [Compound 2] | showed metabolic stability | reduced hERG activity | displayed activity | Tmax ([4]; male, C57BL/6, mouse, whole blood, po, 20 mg/kg, oral, 20 mg/kg, blood, read-out: time to maximum concentration): ≤ 0.5 h; BA (oral bioavailability) ([4]; oral 20 mg/kg vs IV 4 mg/kg): 60 ± 5% |
| 0.87 ± 0.03 h | 2110 ± 60 nM | 0.68 to 0.87 h | 69 ± 19% | 1900 nM | 2.5 to 3 h | ≤ 1 h | 1.72 µM·h | 83.6 ± 12 mL/min/kg | 9.51 ± 1 L/kg | 5.99 µM·h | 2.53 ± 0.1 h | 1920 ± 30 nM | Nc1ncc(-c2ccc(C(=O)N3CCOCC3)cc2)cc1-c1ccc(C(F)(F)F)cc1 [Compound 1] | showed metabolic stability | reduced hERG activity | displayed activity | T Max ([4]; oral, 20 mg/kg, blood): 1 h |
